# Literature values as cited in patent publication US20060189550A1, “Immunostimulatory, Covalently lipidated oligonucleotides” (Biomira Inc., priority 2002, published 2006).
# Conditions: Table K-2, reference compounds; experimental database value from LogKow
row,Compound,LogP Exp
1,Cc1c[nH]c2ccccc12 [3-methyl indole],2.60
2,"CCSC [Ethane, (methylthio)-]",1.54
3,CCCCOC [methyl n-butyl ether],1.66
4,O=c1ccc2cc3ccoc3cc2o1 [psoralen],1.67
